What was measured:
[1] = solubility of the compound (I) in normal solvents; type: physicochemical
[2] = admixing with amino acid infusion as replacement of pH adjusters; type: physicochemical; conditions: compound (I) 5 mg/mL admixed with KYORYOKU MORIAMINE infusion
[3] = change of pH in the time course on freeze-dried product comprising sodium carbonate; type: physicochemical
Method: (a) when the aqueous solution was prepared,
(b) when the prepared aqueous solution was filled in each vial (5 mL), freeze-dried and then dissolved in water (10 mL),
(c) when the prepared aqueous solution was filled in each vial (5 mL), freeze-dried and the formulation obtained was left at 60 degrees Centigrade for two weeks and dissolved in water (10 mL).

[4] = investigation of pH adjusters: amount added, pH and clearness of suspension; type: physicochemical
Method: The present inventors have investigated the amounts of di-sodium hydrogen phosphate, tri-sodium phosphate, potassium hydroxide and sodium hydroxide to add and the changes in pH thereby.
Di-sodium hydrogen phosphate dodecahydrate (80 g) was added to water (200 mL) and dissolved by heating. To the above suspension under stirring with a stirrer was added the aqueous solution of Di-sodium hydrogen phosphate dodecahydrate by 5 mL each and the pH was measured.
To the suspension under stirring with a stirrer was added an aqueous solution of […] (4 g/100 mL) by 5 mL portion each and the pH was measured.
To the suspension under stirring with a stirrer was added 1N aqueous solution of potassium hydroxide (0.5 mL portion each) and the pH of the solution was measured.
To the suspension under stirring with a stirrer was added 1N aqueous solution of sodium hydroxide (1 mL portion each) and the pH was measured.

[5] = stability of the drug products (pH and residual rate of freeze-dried products); type: physicochemical
Method: (i) an aqueous solution of tri-sodium phosphate dodecahydrate (36.4 mg/mL; 50 mL),
(ii) an aqueous solution of potassium hydroxide (56 mg/mL 6 mL),
(iii) an aqueous solution of sodium hydroxide (40 mg/mL; 5.6 mL)
(a) when the aqueous solutions were prepared,
(b) when the prepared aqueous solutions were filled in each vial (5 mL), freeze-dried and then dissolved in water (10 mL),
(c) when the prepared aqueous solution was filled in each vial (5 mL), freeze-dried and the drug product was left at 60 degrees Centigrade for two weeks (in case of sodium hydroxide for one month) and dissolved in water (10 mL).

elastase = target: T1, elastase (Homo sapiens, UniProt P08246); conditions: background statement; cited from earlier work
T1 sequence (P08246 30-267): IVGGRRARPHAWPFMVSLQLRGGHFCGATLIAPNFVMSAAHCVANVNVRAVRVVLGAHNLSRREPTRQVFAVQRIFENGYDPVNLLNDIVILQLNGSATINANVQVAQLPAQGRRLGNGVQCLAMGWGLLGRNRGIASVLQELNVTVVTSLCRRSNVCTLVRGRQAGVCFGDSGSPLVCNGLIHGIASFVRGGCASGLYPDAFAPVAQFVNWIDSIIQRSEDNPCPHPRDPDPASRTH

[6] = amount of sodium hydroxide and stability in water/ethanol solution; type: physicochemical; conditions: pH over 8.5
Method: To the mixture added water in order to fill up to 5 mL of total solution.

[7] = investigation of a solution of high concentration; type: physicochemical; conditions: 400 mg compound (I), 100 mg mannitol, 24 mg sodium hydroxide, water to 5 mL
Method: To the mixture under stirring, was added IN aqueous solution of sodium hydroxide (0.6 mL: corresponds to 24 mg). Thereto was added water in order to fill up to 5 mL of total amount. […] Therefore it was impossible to freeze-dry the suspension.

[8] = formulation with sodium carbonate

Compound: CC(C)(C)C(=O)Oc1ccc(S(=O)(=O)Nc2ccccc2C(=O)NCC(=O)[O-])cc1.[Na+] [compound (I), N-[o-(p-pivaloyloxybenzenesulfonylamino)benzoyl]glycine monosodium salt tetra-hydrate]
- solubility ([1]; ethanol, organic solvent or mixture, read-out: solubility in ethanol): < 6 mg/mL
- solubility ([1]; water, read-out: solubility in water): < 0.4 mg/mL
- pH after preparation [2]: 6.36
- pH after twenty-four hours [2]: 6.13
- residual rate of the compound (I) after twenty-four hours [2]: 54.1%
- pH (a) when the aqueous solution was prepared ([3]; formulation of JP kokai hei 5-194366 with sodium chloride and sodium carbonate): 7.80
- pH (b) freeze-dried and then dissolved in water (10 mL) [3, 8]: 8.11
- pH (c) freeze-dried, left at 60 degrees Centigrade for two weeks, dissolved in water (10 mL) [3, 8]: 8.44
- residual rate of the compound (I) ([3]; freeze-dried product with sodium carbonate, 60 degrees Centigrade, two weeks): 91.4%
- pH when the suspension turned into a clear aqueous solution ([4]; 5 mL of 1N potassium hydroxide added): 7.20
- pH when the suspension turned into a clear aqueous solution ([4]; 7 mL of 1N sodium hydroxide added): 7.44
- pH when the suspension turned into a clear aqueous solution ([4]; 45 mL of tri-sodium phosphate dodecahydrate solution added): 7.19
- condition of the suspension (clear solution or not) ([4]; di-sodium hydrogen phosphate dodecahydrate solution 200 mL (80 g), pH 8.18): did not turn into a clear aqueous solution
- solubility ([5]; aqueous buffer, solvent exclusively water, with pH adjuster, read-out: solubility of the above solution (water with pH adjuster)): ~20 mg/mL
- residual rate of the compound (I) ([5]; freeze-dried product with sodium hydroxide, 60 degrees Centigrade, 1 month): 98.3%
- inhibitory activity against elastase (elastase): has an inhibitory activity against elastase
- residual rate of the compound (I) [6]: over 98%
- condition of the mixture (clear solution or not) ([7]; ethanol 1.0 mL): clear solution
- condition of the mixture (clear solution or not) ([7]; no ethanol): did not turn into a clear solution but a white suspension
